Columns and labels:
[1] = system: EO771 orthotopic breast tumors; test: Tumor growth and survival; format: in vivo, mouse; settings: wild type mice, three intratumoral treatments every other day, 100 μg cGAMP
Protocol: Orthotopic mammary fat pad tumors were established as in Example 9. […] The mice were injected intratumorally with 20 μL of solution infused at 1 μL/second using a syringe pump. […] The mice were treated every other day for a total of three treatments (days 13, 15, and 17). US, where part of the treatment group, was applied by using acoustic coupling gel and a 1-MHz plane wave transducer operating at 4 W/cm^2 for 60 seconds and a 50% duty cycle given to opposite sides of the tumor for a total treatment time of 120 seconds. At 18 days post tumor inoculation treated mice were sacrificed.
Tumor sizes were measured every two days using digital calipers, and tumor volume was calculated according to an ellipsoid formula as 0.5×length×width^2. Mice were sacrificed if any tumor ulceration was observed or if tumors reached 2000 mm^3 in volume. The final tumor volume comparison between the MUSIC and control groups was done when the first mice from a control group was sacrificed. […] Statistical analysis was done using an unpaired t-test for tumor sizes and Log-rank test for survival curves.

STING pathway in BMDMs = test: STING signaling after treatment (qRT-PCR, ELISA, western blot, immunostaining); format: cell-based, mouse
Protocol: Mouse BMDMs and human THP-1 cells were cultured as described above.

BMDMs = format: cell-based, mouse
Protocol: Mouse bone marrow-derived macrophages (BMDMs) were isolated from the hind leg femur bone marrow of C57BL/6J mice and were cultured or activated with macrophage colony-stimulating factor (M-CSF, 50 ng ml-1) according to standardized procedures. The purity of the induced cells was assessed by flow cytometry for CD45+CD11b+ cells.
One day before treatment, cells were plated at 400,000 cells/well in a 12 well plate. […] […] Plates were flipped upside down and left to incubate for 10 min at 37° C. Cells were diluted to 2.5 mL with PFB-saturated RPMI, placed on top of a water bath set to 37° C., then sonoporated at 1 MHz, with 1 W/cm^2 power density, 20% duty cycle (DC) for 60 seconds (SONITRON® GTS, 15 mm diameter). Fluorescence microscopy images were taken at different time points (0, 3, 6, 12, 24, and 48 h).

In the case of Nc1nc2c(ncn2[C@@H]2O[C@@H]3COP(=O)(O)O[C@H]4[C@@H](O)[C@H](n5cnc6c(N)ncnc65)O[C@@H]4COP(=O)(O)O[C@@H]2[C@@H]3O)c(=O)[nH]1 [cGAMP, cyclic guanosine monophosphate-adenosine monophosphate], the “mice with complete tumor remission / complete response” value [1] is reported as 2 out of 10 and the “STING or IRF-3 phosphorylation (western blot)” value (STING pathway in BMDMs) is reported as “no STING or IRF-3 phosphorylation”.
“2′-O-(6-[DY547]-aminohexylcarbamoyl)-cyclic diguanosine monophosphate [diGMP only]” was tested, and the “uptake of diGMP (fluorescence microscopy)” value (BMDMs) was “weak uptake”.
